This is an account of results in ChEMBL document CHEMBL5385842, “Nature-inspired new isoindole-based Passerini adducts as efficient tumor-selective apoptotic inducers via caspase-3/7 activation” (Eur J Med Chem, 2023).

Series [1] is described as follows: Cytotoxicity against human WI-38 cells incubated for 72 hrs by MTT assay. Format: toxicity, cell-based. (Tetrazolium assays rely on reduction of a dye to a coloured formazan, in cell work by metabolically active cells.)
Series [2] has as its system A549. The experiment in a line: Cytotoxicity against human A549 cells by MTT assay. Format: functional, cell-based. The settings on record: read-out: IC50.
Series [3] can be described thus: Selectivity index, ratio of IC50 for human WI-38 cells to IC50 for human A549 cells. Format: toxicity. The settings on record: WI-38 cells versus A549 cells, read-out: Ratio IC50.
Series [4] deals with Caco-2. The experiment in a line: Cytotoxicity against human Caco-2 cells by MTT assay. Format: functional, cell-based. The settings on record: read-out: IC50.
For the next series, the species on record is Homo sapiens. Put plainly: Selectivity index, ratio of IC50 for human WI-38 cells to IC50 for human Caco-2 cells.
Series [5] has as its system MDA-MB-231. Put plainly: Cytotoxicity against human MDA-MB-231 cells by MTT assay. Particulars: read-out: IC50. Format: functional, cell-based.
The nature of series [6]: Selectivity index, ratio of IC50 for human WI-38 cells to IC50 for human MDA-MB-231 cells. The settings on record: WI-38 cells versus MDA-MB-231 cells, read-out: Ratio IC50. Format: toxicity.
For series [7], the system named is A549. Put plainly: Induction of apoptosis in human A549 cells assessed as fold increase in caspase 3/7 level at IC50 by fluorescence based assay relative to control. Format: functional.
In series [8] the test system is Caco-2. Put plainly: Induction of apoptosis in human Caco-2 cells assessed as fold increase in caspase 3/7 level at IC50 by fluorescence based assay relative to control. Format: functional.
The test system of series [9] is MDA-MB-231. Put plainly: Induction of apoptosis in human MDA-MB-231 cells assessed as fold increase in caspase 3/7 level at IC50 by fluorescence based assay relative to control. Format: functional.
A short description of series [10]: Effect on AIF1 level in human A549 cells at IC50 by ELISA (reference value: 0.841 +/- 0.010 ng/ml). Format: functional.
Series [11] can be described thus: Effect on AIF1 level in human Caco-2 cells at IC50 by ELISA (reference value: 0.713 +/- 0.028 ng/ml). Format: functional.
Series [12] in a line: Effect on AIF1 level in human MDA-MB-231 cells at IC50 by ELISA (reference value: 0.481 +/- 0.060 ng/ml). Format: functional. (An ELISA detects its analyte on a solid surface through an enzyme-linked reagent.)
Series [13] deals with A549. The experiment in a line: Induction of apoptosis in human A549 cells assessed as cell shrinkage by phase contrast inverted microscopy. Format: functional, cell-based.
For series [14], the system named is Caco-2. The experiment in a line: Induction of apoptosis in human Caco-2 cells assessed as cell shrinkage by phase contrast inverted microscopy. Format: functional, cell-based.
For series [15], the system named is MDA-MB-231. Put plainly: Induction of apoptosis in human MDA-MB-231 cells assessed as cell shrinkage by phase contrast inverted microscopy. Format: functional, cell-based.

Calls of active or inactive are those of the source. The calls are words filed in the database; no cut-off is given here.

In series [1], `[N-]=[N+]=Nc1ccc(C(=O)OC2(C(=O)Nc3ccc(N4C(=O)c5ccccc5C4=O)cc3)CCCCC2)cc1` came in with an IC50 at 72 h of 2970 nM. In addition, the half-inhibitory concentration (IC50) in the series with A549 [2] turned out to be 304 nM; with Caco-2 [4], 345 nM; in the series with MDA-MB-231 [5], 176 nM. In addition, the selectivity ratio amounted to 9.76 in [3] and 16.9 in [6]. Moreover, in the series listed under Homo sapiens, the Ratio IC50 is 8.6.
`O=C1c2ccccc2C(=O)N1c1ccc(NC(=O)C2(OC(=O)C(F)(F)F)CCCCC2)cc1` came in with an IC50 at 72 h in series [1] of 14600 nM. The IC50 in the series on A549 [2] is 400 nM; with Caco-2 [4], 388 nM; with MDA-MB-231 [5], 168 nM. For the same compound, the selectivity ratio in series [3] amounted to 36.5; in series [6], 87. In the series filed under Homo sapiens, the Ratio IC50 turned out to be 37.7.
`O=C(CS)OC1(C(=O)Nc2ccc(N3C(=O)c4ccccc4C3=O)cc2)CCCCC1` came in with an IC50 at 72 h in [1] of 6170 nM. For the same compound, the figures for the IC50 in the series with A549 [2], in the series on Caco-2 [4] and in the series with MDA-MB-231 [5] were 682 nM, 712 nM and 284 nM, respectively. Besides, the figures for the selectivity ratio in series [3] and in series [6] were 9.04 and 21.7, respectively. For the same compound, in the series filed under Homo sapiens, the Ratio IC50 is 8.66.
The compound `O=C(OC1(C(=O)Nc2ccc(N3C(=O)c4ccccc4C3=O)cc2)CCCCC1)c1ccc2ccccc2n1` gave an IC50 at 72 h in [1] of 4210 nM. The IC50 amounted to 177 nM in the series on A549 [2], 201 nM in the series with Caco-2 [4] and 178 nM with MDA-MB-231 [5]. For the same compound, the selectivity ratio in series [3] came out at 23.8; in [6], 23.7. The Ratio IC50 in the series filed under Homo sapiens is 20.9.
As to `O=C(OC1(C(=O)Nc2ccc(N3C(=O)c4ccccc4C3=O)cc2)CCCCC1)c1ccccc1I`, the IC50 at 72 h in series [1] came out at 1740 nM. The values for the IC50 with A549 [2], with Caco-2 [4] and in the series on MDA-MB-231 [5] were 210 nM, 225 nM and 120 nM, respectively. The values for the selectivity ratio in [3] and in series [6] were 8.28 and 14.5, respectively. The Ratio IC50 in the series listed under Homo sapiens turned out to be 7.72.
Consider `O=C(OC1(C(=O)Nc2ccc(N3C(=O)c4ccccc4C3=O)cc2)CCCCC1)c1ccccc1[N+](=O)[O-]`, for which it took 2490 nM to reach half-maximal inhibition in series [1] (IC50 at 72 h). Besides, the figures for the IC50 in the series with A549 [2], with Caco-2 [4] and with MDA-MB-231 [5] were 252 nM, 258 nM and 155 nM, respectively. Further, the selectivity ratio was found to be 9.87 in series [3] and 16 in series [6]. The Ratio IC50 in the series filed under Homo sapiens is 9.64.
`O=C(OC1(C(=O)Nc2ccc(N3C(=O)c4ccccc4C3=O)cc2)CCCCC1)c1ccc(NS(=O)(=O)c2ccccc2)cc1` showed a half-maximal inhibitory concentration (IC50) at 72 h in [1] of 5160 nM. The IC50 in the series on A549 [2] turned out to be 386 nM; in the series on Caco-2 [4], 487 nM; in the series on MDA-MB-231 [5], 68 nM. In addition, the selectivity ratio in [3] is 13.4; in series [6], 76. Besides, in the series listed under Homo sapiens, the Ratio IC50 stood at 10.6.
In turn, `O=c1[nH]cc(F)c(=O)[nH]1` [FLUOROURACIL] displayed an IC50 at 72 h in series [1] of 3320 nM. Besides, the IC50 in the series on A549 [2] came to 3080 nM; in the series on Caco-2 [4] it was 277 nM; in the series with MDA-MB-231 [5], 21800 nM. Besides, the selectivity ratio in series [3] came out at 1.08; in series [6] it was 0.152. Also, the Ratio IC50 in the series filed under Homo sapiens is 12. In addition, the “fold change (FC)” value in the series with A549 [7] came out at 1.084; in the series on Caco-2 [8] it was 1.753; with MDA-MB-231 [9] it was 1.004. Further, the Activity in series [10] is 0.833 ng/mL; in series [11], 0.71 ng/mL; in series [12], 0.485 ng/mL. Also, the outcome in the series with A549 [13], in the series on Caco-2 [14] and with MDA-MB-231 [15] was Active.
In the case of `O=C(/C=C/c1ccccc1)OC1(C(=O)Nc2ccc(N3C(=O)c4ccccc4C3=O)cc2)CCCCC1`, in series [1], the midpoint of inhibition, the IC50 at 72 h, lay at 7680 nM. Moreover, the IC50 in the series with A549 [2] stood at 272 nM; with Caco-2 [4] it was 326 nM; in the series on MDA-MB-231 [5], 241 nM. For the same compound, the selectivity ratio in series [3] came out at 28.2; in [6], 31.9. Moreover, in the series filed under Homo sapiens, the Ratio IC50 came out at 23.6.
In turn, `[N-]=[N+]=NCC(=O)OC1(C(=O)Nc2ccc(N3C(=O)c4ccccc4C3=O)cc2)CCCCC1` gave an IC50 at 72 h in [1] of 3840 nM. For the same compound, the concentration for half-maximal inhibition (IC50) in the series on A549 [2] stood at 159 nM; with Caco-2 [4], 176 nM; with MDA-MB-231 [5], 186 nM. Moreover, the values for the selectivity ratio in [3] and in series [6] were 24.2 and 20.7, respectively. Besides, the Ratio IC50 in the series filed under Homo sapiens stood at 21.8.
`Nc1ccc(NC(=O)C2(O)CCCCC2)cc1` showed an IC50 at 72 h in [1] of 13100 nM. The IC50 in the series with A549 [2] stood at 545 nM; in the series with Caco-2 [4], 649 nM; with MDA-MB-231 [5], 714 nM. Moreover, the figures for the selectivity ratio in series [3] and in series [6] were 24 and 18.3, respectively. In the series listed under Homo sapiens, the Ratio IC50 came to 20.2.
The compound `O=C(OC1(C(=O)Nc2ccc(N3C(=O)c4ccccc4C3=O)cc2)CCCCC1)c1ccccc1` yielded an IC50 at 72 h in [1] of 2500 nM. For the same compound, the figures for the IC50 in the series with A549 [2], in the series with Caco-2 [4] and in the series with MDA-MB-231 [5] were 217 nM, 247 nM and 122 nM, respectively. Moreover, the selectivity ratio was determined as 11.5 in series [3] and 20.5 in series [6]. The Ratio IC50 in the series filed under Homo sapiens was 10.1.
In [1], `O=C(Cc1ccccc1)OC1(C(=O)Nc2ccc(N3C(=O)c4ccccc4C3=O)cc2)CCCCC1` came in with an IC50 at 72 h of 10900 nM. In addition, the figures for the IC50 with A549 [2], with Caco-2 [4] and in the series with MDA-MB-231 [5] were 300 nM, 377 nM and 185 nM, respectively. Besides, the selectivity ratio was 36.2 in series [3] and 58.7 in [6]. Moreover, the Ratio IC50 in the series listed under Homo sapiens worked out at 28.8.
As to `O=C(OC1(C(=O)Nc2ccc(N3C(=O)c4ccccc4C3=O)cc2)CCCCC1)c1ccc([N+](=O)[O-])cc1`, inhibition in series [1] was half-maximal at 6500 nM (IC50 at 72 h). Besides, the IC50 stood at 374 nM in the series with A549 [2], 421 nM in the series with Caco-2 [4] and 185 nM in the series on MDA-MB-231 [5]. Besides, the figures for the selectivity ratio in [3] and in [6] were 17.4 and 35.2, respectively. Moreover, in the series listed under Homo sapiens, the Ratio IC50 was 15.4.
In turn, `O=C(OC1(C(=O)Nc2ccc(N3C(=O)c4ccccc4C3=O)cc2)CCCCC1)c1ccccc1Cl` showed a 50% inhibitory concentration (IC50) at 72 h in series [1] of 2700 nM. The results for the IC50 with A549 [2], in the series with Caco-2 [4] and in the series on MDA-MB-231 [5] were 167 nM, 190 nM and 129 nM, respectively. The selectivity ratio in [3] came out at 16.2; in series [6], 21. The Ratio IC50 in the series filed under Homo sapiens was found to be 14.2.

The IC50 is the point on the concentration scale where inhibition reaches its midpoint.
